Test results taken from ChEMBL document CHEMBL4406898, “Dual mode of binding of anti cancer drug epirubicin to G-quadruplex [d-(TTAGGGT)]4 containing human telomeric DNA sequence induces thermal stabilization” (Bioorg Med Chem, 2019).

Experiments:
Quadruplex DNA [1] = assay: Binding affinity to human telomeric 7 G-quadruplex DNA assessed as binding constant Kb2; type: nucleic-acid assay
Albumin = Albumin (Homo sapiens, UniProt P02768); assay: Binding affinity to human serum albumin assessed as binding constant after 24 hrs by absorption spectroscopy; type: ADME; details: isolated protein
Chain of Albumin (P02768 whole entry): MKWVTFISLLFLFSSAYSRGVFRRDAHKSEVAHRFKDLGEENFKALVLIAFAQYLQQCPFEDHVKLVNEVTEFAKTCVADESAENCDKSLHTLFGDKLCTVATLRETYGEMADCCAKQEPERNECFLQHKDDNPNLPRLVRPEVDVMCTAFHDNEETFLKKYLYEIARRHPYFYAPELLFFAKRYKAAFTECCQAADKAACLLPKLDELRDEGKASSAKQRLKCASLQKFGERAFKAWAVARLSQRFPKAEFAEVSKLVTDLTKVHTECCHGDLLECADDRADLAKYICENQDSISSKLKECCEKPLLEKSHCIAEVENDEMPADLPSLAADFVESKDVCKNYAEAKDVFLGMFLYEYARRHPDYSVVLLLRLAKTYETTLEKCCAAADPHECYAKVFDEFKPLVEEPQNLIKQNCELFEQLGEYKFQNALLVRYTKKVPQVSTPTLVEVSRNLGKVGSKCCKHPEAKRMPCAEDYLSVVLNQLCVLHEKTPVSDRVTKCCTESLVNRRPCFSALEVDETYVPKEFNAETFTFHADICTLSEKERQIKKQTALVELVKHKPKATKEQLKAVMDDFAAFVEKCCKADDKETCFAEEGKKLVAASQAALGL

Quadruplex DNA [2] = assay: Binding affinity to human telomeric 7 G-quadruplex DNA assessed as binding constant Kb1; type: nucleic-acid assay

Kb (Quadruplex DNA [1]): 0.6 ×10⁶ /M
Kb (Albumin): 3 ×10³ /M
Kb (Quadruplex DNA [2]): 1.1 ×10⁶ /M
SMILES: COc1cccc2c1C(=O)c1c(O)c3c(c(O)c1C2=O)C[C@@](O)(C(=O)CO)C[C@@H]3O[C@H]1C[C@H](N)[C@H](O)[C@H](C)O1.Cl [DOXORUBICIN HYDROCHLORIDE]
